Read-outs that look alike come from different tables or passages of the source.
Key:
A-549 = assay: Inhibition of cell growth by counting cells, A-549; type: cell-based, human; conditions: three days of incubation, read-out: IC50 (molar) A-549
Method: (§1) 1°.—Inhibition of Cell Growth by Counting Cells.
(§2) This form of the assay employs 24 well multidishes of 16 mm diameter (Bergeron, 1984; Schroeder, 1981). The tumor cell lines employed are: P-388 (ATCC CCL 46), suspension culture of a lymphoid neoplasm from a DBA/2 mouse; A-549 (ATCC CCL 185), monolayer culture of a human lung carcinoma; HT-29 (ATCC HTB-38), monolayer culture of a human colon carcinoma; MEL-28 (ATCC HTB-72), monolayer culture of a human melanoma and DU-145 (ATCC HTB-81), monolayer culture of a human prostate carcinoma.
(§3) Cells were maintained, in logarithmic phase of growth in Eagle's Minimum Essential Medium, with Earle's Balanced Salts, with non-essential amino acids, with 2.0 mM L-Glutamine, without sodium bicarbonate (EMEM/neaa), supplemented with 10% Fetal Calf Serum (FCS), 10^−2 M. sodium bicarbonate and 0.1 U/l penicillin G+0.1 g/l streptomycin sulfate. For the experiments, cells are harvested from subconfluent cultures using trypsin and resuspended in fresh medium before plating.
(§4) A-549, HT-29, MEL-28 and DU-145 cells were seeded into 16 mm diameter wells at 1×10^4 cells per well in 1 ml aliquots of EMEM 5% FCS containing different concentrations of the sample to be tested. A separate set of cultures without drug was seeded as control of growth, to ensure that cells remained in exponential phase of growth. All determinations are carrying out in duplicate. After three days of incubation at 37° C., 5% CO2 in a 98% humid atmosphere cells were stained with 0.1% crystal violet. An approximately IC50 was determined by comparing the growth in wells with drug to the growth in wells control.
(§5) For quantifying the activity, after the incubation time, cells are trypsinized and counted in a Coulter Counter ZM. All counts (net cells per well), represent the average of duplicate wells. % G, percent of growth relative to cultures without drug. The results of these assays are used to generate dose-response curves from which more precise IC50 values are determined (sample concentration which produces 50% cell growth inhibition).
(§6) Obtained results may predict the usefulness of a certain drug as a potential cancer treatment. For this technique, compounds which show IC50 values smaller than 1 μg/ml are selected to continue with further studies. IC50's data allow to predict that not only could a drug be cystostatic, but also it could have a potential in terms of tumor reduction.

HT-29 = assay: Inhibition of cell growth by counting cells, HT-29; type: cell-based, human; conditions: three days of incubation, read-out: IC50 (molar) HT-29
Method: as §1, §2, §3, §4, §5, §6

| SMILES | IC50 (A-549; Homo sapiens, A549, 72 h) | IC50 (HT-29; Homo sapiens, HT-29, 72 h) | IC50 (A-549) | IC50 (HT-29) |
| --- | --- | --- | --- | --- |
| CCCC(=O)Oc1c(C)c2c(c3c1[C@H]1SC[C@]4(NCCc5cc(O)c(OC)cc54)C(=O)OC[C@@H]3N3C1[C@H]1c4c(cc(C)c(OC)c4O)C[C@@H]([C@@H]3C#N)N1C)OCO2 (stereo partly drawn) [Compound 139] | 1.25 nM | 1.25 nM | – | – |
| CCCC(=O)Oc1c(C)c2c(c3c1[C@H]1SC[C@]4(NCCc5cc(OC(=O)OC(C)(C)C)c(OC)cc54)C(=O)OC[C@@H]3N3C1[C@H]1c4c(cc(C)c(OC)c4OC(=O)CCC)C[C@@H]([C@@H]3C#N)N1C)OCO2 (stereo partly drawn) [Compound 112] | 10.3 nM | 10.3 nM | – | – |
| COc1cc2c(cc1OC(=O)CCc1ccccc1)CCN[C@]21CS[C@@H]2c3c(OC(C)=O)c(C)c4c(c3[C@H](COC1=O)N1C2[C@H]2c3c(cc(C)c(OC)c3O)C[C@@H]([C@@H]1C#N)N2C)OCO4 (stereo partly drawn) [Compound 11] | 0.554 nM | 0.554 nM | – | – |
| COc1cc2c(cc1OC(=O)OC(C)(C)C)CCN[C@]21CS[C@@H]2c3c(OC(C)=O)c(C)c4c(c3[C@H](COC1=O)N1C2[C@H]2c3c(cc(C)c(OC)c3OC)C[C@@H]([C@@H]1C#N)N2C)OCO4 (stereo partly drawn) [Compound 45] | 0.113 nM | 0.113 nM | – | – |
| C=CCOC(=O)Oc1c(C)c2c(c3c1[C@H]1SC[C@]4(NCCc5cc(OC(=O)OC(C)(C)C)c(OC)cc54)C(=O)OC[C@@H]3N3C1[C@H]1c4c(cc(C)c(OC)c4O)C[C@@H]([C@@H]3C#N)N1C)OCO2 (stereo partly drawn) [Compound 115] | 0.11 nM | 0.11 nM | – | – |
| COc1cc2c(cc1OC(=O)OC(C)(C)C)CCN[C@]21CS[C@@H]2c3c(OC(=O)/C=C/c4ccccc4)c(C)c4c(c3[C@H](COC1=O)N1C2[C@H]2c3c(cc(C)c(OC)c3OC(=O)/C=C/c3ccccc3)C[C@@H]([C@@H]1C#N)N2C)OCO4 (stereo partly drawn) [Compound 114] | 9.18 nM | 9.18 nM | – | – |
| COc1cc2c(cc1O)CCN[C@]21CS[C@@H]2c3c(OCc4ccccc4)c(C)c4c(c3[C@H](COC1=O)N1C2[C@H]2c3c(cc(C)c(OC)c3OCc3ccccc3)C[C@@H]([C@@H]1O)N2C)OCO4 (stereo partly drawn) [Compound 181] | 11.1 nM | 11.1 nM | – | – |
| COc1cc2c(cc1O)CCN[C@]21CS[C@@H]2c3c(OC(=O)/C=C/c4ccccc4)c(C)c4c(c3[C@H](COC1=O)N1C2[C@H]2c3c(cc(C)c(OC)c3OC(=O)/C=C/c3ccccc3)C[C@@H]([C@@H]1C#N)N2C)OCO4 (stereo partly drawn) [Compound 138] | 1.01 nM | 1.01 nM | – | – |
| CCOc1c(C)c2c(c3c1[C@H]1SC[C@]4(NCCc5cc(O)c(OC)cc54)C(=O)OC[C@@H]3N3C1[C@H]1c4c(cc(C)c(OC)c4O)C[C@@H]([C@@H]3O)N1C)OCO2 (stereo partly drawn) [Compound 177] | 0.134 nM | 0.134 nM | – | – |
| COc1cc2c(cc1O)CCN[C@]21CS[C@@H]2c3c(OCc4ccccc4)c(C)c4c(c3[C@H](COC1=O)N1C2[C@H]2c3c(cc(C)c(OC)c3O)C[C@@H]([C@@H]1C#N)N2C)OCO4 (stereo partly drawn) [Compound 157] | 0.122 nM | 0.122 nM | – | – |
| CCCC(=O)Oc1cc2c(cc1OC)[C@@]1(CS[C@@H]3c4c(OC(C)=O)c(C)c5c(c4[C@H](COC1=O)N1C3[C@H]3c4c(cc(C)c(OC)c4OC(=O)CCC)C[C@@H]([C@@H]1O)N3C)OCO5)NCC2 (stereo partly drawn) [Compound 81] | 5.54 nM | 5.54 nM | – | – |
| COc1cc2c(cc1OC(=O)[C@H](C)NC(=O)OC(C)(C)C)CCN[C@]21CS[C@@H]2c3c(OC(C)=O)c(C)c4c(c3[C@H](COC1=O)N1C2[C@H]2c3c(cc(C)c(OC)c3O)C[C@@H]([C@@H]1C#N)N2C)OCO4 (stereo partly drawn) [Compound 24] | 0.531 nM | 0.531 nM | – | – |
| COc1cc2c(cc1O)CCN[C@]21CS[C@@H]2c3c(OCc4ccccc4)c(C)c4c(c3[C@H](COC1=O)N1C2[C@H]2c3c(cc(C)c(OC)c3O)C[C@@H]([C@@H]1O)N2C)OCO4 (stereo partly drawn) [Compound 180] | 0.618 nM | 0.618 nM | – | – |
| CCCCCCCCCCCCCCCC(=O)Oc1cc2c(cc1OC)[C@@]1(CS[C@@H]3c4c(OC(C)=O)c(C)c5c(c4[C@H](COC1=O)N1C3[C@@H]3N[C@@H](Cc4cc(C)c(OC)c(OC(=O)CCCCCCCCCCCCCCC)c43)[C@@H]1O)OCO5)NCC2 (stereo partly drawn) [Compound 216] | 81.6 nM | 81.6 nM | – | – |
| COc1cc2c(cc1OC(=O)OC(C)(C)C)CCN[C@]21CS[C@@H]2c3c(OC(=O)OC(C)(C)C)c(C)c4c(c3[C@H](COC1=O)N1C2[C@H]2c3c(cc(C)c(OC)c3OC(=O)OC(C)(C)C)C[C@@H]([C@@H]1C#N)N2C)OCO4 (stereo partly drawn) [Compound 110] | 0.0972 nM | 0.0972 nM | – | – |
| CCCOc1c(C)c2c(c3c1[C@H]1SC[C@]4(NCCc5cc(O)c(OC)cc54)C(=O)OC[C@@H]3N3C1[C@H]1c4c(cc(C)c(OC)c4O)C[C@@H]([C@@H]3C#N)N1C)OCO2 (stereo partly drawn) [Compound 153] | – | – | 0.13 nM | 0.13 nM |
| COc1cc2c(cc1OC(=O)OC(C)(C)C)CCN[C@]21CS[C@@H]2c3c(OC)c(C)c4c(c3[C@H](COC1=O)N1C2[C@H]2c3c(cc(C)c(OC)c3OC)C[C@@H]([C@@H]1C#N)N2C)OCO4 (stereo partly drawn) [Compound 127] | – | – | 0.117 nM | 0.117 nM |
| COc1cc2c(cc1O)CCN[C@]21CS[C@@H]2c3c(OCc4ccccc4)c(C)c4c(c3[C@H](COC1=O)N1C2[C@H]2c3c(cc(C)c(OC)c3OCc3ccccc3)C[C@@H]([C@@H]1C#N)N2C)OCO4 (stereo partly drawn) [Compound 158] | 1.1 nM | 1.1 nM | – | – |
| CCCCCCCC(=O)Oc1c(C)c2c(c3c1[C@H]1SC[C@]4(NCCc5cc(O)c(OC)cc54)C(=O)OC[C@@H]3N3C1[C@H]1c4c(cc(C)c(OC)c4OC(=O)CCCCCCC)C[C@@H]([C@@H]3O)N1C)OCO2 (stereo partly drawn) [Compound 169] | 1.03 nM | 1.03 nM | – | – |
| COc1cc2c(cc1O)CCN[C@]21CS[C@@H]2c3c(OC(=O)CCCl)c(C)c4c(c3[C@H](COC1=O)N1C2[C@H]2c3c(cc(C)c(OC)c3O)C[C@@H]([C@@H]1C#N)N2C)OCO4 (stereo partly drawn) [Compound 142] | 1.22 nM | 1.22 nM | – | – |
| C=CCOc1c(C)c2c(c3c1[C@H]1SC[C@]4(NCCc5cc(O)c(OC)cc54)C(=O)OC[C@@H]3N3C1[C@H]1c4c(cc(C)c(OC)c4OCC=C)C[C@@H]([C@@H]3O)N1C)OCO2 (stereo partly drawn) [Compound 179] | 12.5 nM | 12.5 nM | – | – |
| COc1cc2c(cc1OC(=O)/C=C/c1ccccc1)CCN[C@]21CS[C@@H]2c3c(OC(C)=O)c(C)c4c(c3[C@H](COC1=O)N1C2[C@H]2c3c(cc(C)c(OC)c3OC(=O)/C=C/c3ccccc3)C[C@@H]([C@@H]1O)N2C)OCO4 (stereo partly drawn) [Compound 84] | 48.9 nM | 48.9 nM | – | – |
| COc1cc2c(cc1OC(=O)OC(C)(C)C)CCN[C@]21CS[C@@H]2c3c(OC(=O)C(F)(F)F)c(C)c4c(c3[C@H](COC1=O)N1C2[C@H]2c3c(cc(C)c(OC)c3OC(=O)C(F)(F)F)C[C@@H]([C@@H]1C#N)N2C)OCO4 (stereo partly drawn) [Compound 109] | 0.98 nM | 0.98 nM | – | – |
| C=CCOc1c(C)c2c(c3c1[C@H]1SC[C@]4(NCCc5cc(OC(=O)OC(C)(C)C)c(OC)cc54)C(=O)OC[C@@H]3N3C1[C@H]1c4c(cc(C)c(OC)c4O)C[C@@H]([C@@H]3C#N)N1C)OCO2 (stereo partly drawn) [Compound 132] | 1.15 nM | 1.15 nM | – | – |
| C=CCOc1c(C)c2c(c3c1[C@H]1SC[C@]4(NCCc5cc(O)c(OC)cc54)C(=O)OC[C@@H]3N3C1[C@H]1c4c(cc(C)c(OC)c4OCC=C)C[C@@H]([C@@H]3C#N)N1C)OCO2 (stereo partly drawn) [Compound 156] | 12.4 nM | 12.4 nM | – | – |
| COC1=C(C)C(=O)C2=C(C1=O)[C@@H]1C3[C@@H]4SC[C@]5(NCCc6cc(O)c(OC)cc65)C(=O)OC[C@@H](c5c6c(c(C)c(OC(C)=O)c54)OCO6)N3[C@@H](C#N)[C@H](C2)N1C (stereo partly drawn) [Compound 52] | 1.27 nM | 1.27 nM | – | – |
| COc1cc2c(cc1O)CCN[C@]21CS[C@@H]2c3c(OC(C)=O)c(C)c4c(c3[C@H](COC1=O)N1C2[C@H]2c3c(cc(C)c(O)c3O)C[C@@H]([C@@H]1O)N2C)OCO4 (stereo partly drawn) [Compound 221] | 1.34 nM | 1.34 nM | – | – |
| COc1cc2c(cc1O)CCN[C@]21CS[C@@H]2c3c(OC)c(C)c4c(c3[C@H](COC1=O)N1C2[C@H]2c3c(cc(C)c(OC)c3O)C[C@@H]([C@@H]1C#N)N2C)OCO4 (stereo partly drawn) [Compound 149] | 0.135 nM | 0.135 nM | – | – |
| COc1cc2c(cc1O)CCN[C@]21CS[C@@H]2c3c(OC)c(C)c4c(c3[C@H](COC1=O)N1C2[C@H]2c3c(cc(C)c(OC)c3OC)C[C@@H]([C@@H]1C#N)N2C)OCO4 (stereo partly drawn) [Compound 150] | 1.32 nM | 1.32 nM | – | – |
| CCOc1c(C)c2c(c3c1[C@H]1SC[C@]4(NCCc5cc(O)c(OC)cc54)C(=O)OC[C@@H]3N3C1[C@H]1c4c(cc(C)c(OC)c4O)C[C@@H]([C@@H]3C#N)N1C)OCO2 (stereo partly drawn) [Compound 151] | 0.132 nM | 0.132 nM | – | – |

Reference: patent US7759345B2, “Antitumoral derivatives of ET-743” (priority 2001, dated 2010)
